The structures appear in SMILES notation. Several values for one entry are separate records, joined by “and”; a condition that tells them apart may be missing. Identical values can stand only once.

Experiment [1] has as its system Retinoic Acid Response Element (RARE) transcription factor pathway. Kind of experiment: Cignal RARE Reporter Assay (firefly luciferase) in HEK293 cells. It counts as cell-based. Conditions: for RARE-mediated firefly luciferase expression, % control / RARE-mediated firefly luciferase expression, Fold increase: 24 h, vs water; for Activity in RARE reporter assay: tested concentrations. From the text: Objective: Retinoic Acid Receptor (RAR) controls gene transcription by binding to Retinoid Acid Response Elements (RAREs) in DNA. This process is modulated by all trans retinoic acid (ATRA)—a compound with well-established anti-aging skin benefits. […] Cignal RARE Reporter Assay® is designed to screen for such compounds using cell cultures. The objective of this project was to test 6 compounds (retinoic acid (ATRA), retinol, vitamin A palmitate, retinal, 10% w/w Near-1 in dimethylisosorbide, and 10% w/w retinoid ester in dimethylisosorbide) for the ability to activate RARE in this Cignal RARE Reporter Assay model.
Materials & Methods: The experiments were performed using HEK293 cells (Sigma, St. Louis, Mo.; cat. #85120602) seeded at 50,000 per well in a 96 well black-wall tissue culture plate. Cells were transfected by mixing Cignal Reporter Assay firefly/renilla luciferase constructs (cat. #CCS-016L; Qiagen) with Attractene Transfection Reagent (Qiagen) in Opti-MEM supplemented with 1% MEM Non-essential amino acid solution without L-glutamine. After medium change test materials were added and their effect on RARE induction was quantified 24 h later with the Dual-Luciferase Reporter Assay System (cat. #E1960; Promega).

Experiment [2] deals with Retinoid X receptor (RXR) transcription factor pathway. Kind of experiment: Cignal RXR Reporter Assay (firefly luciferase) in HEK293 cells. The settings on record: for RXR activation (% control): 24 h, vs water; for Activity in RXR reporter assay: tested concentrations. It counts as cell-based. The text has this: Objective: Retinoid X receptors (RXRs) are one class of nuclear receptors through which retinoids mediate their biological effects. These receptors function as transcription factors by binding as heterodimers to specific sequences in the promoters of target genes. The protein encoded by this gene is a member of the steroid and thyroid hormone receptor superfamily of transcriptional regulators. One of its ligands is all trans retinoic acid (ATRA)—a compound with well-established anti-aging skin benefits. […] Cignal RXR Reporter Assay® is designed to screen for such compounds (retinoic acid (ATRA), retinal, 10% w/w Near-1 in dimethylisosorbide, and 10% w/w retinoid ester in dimethylisosorbide) using cell cultures. The objective of this project was to test four compounds for the ability to activate RXR in this Cignal RXR Reporter Assay model.
The experiments were performed using HEK293 cells (Sigma, St. Louis, Mo.; cat. #85120602) seeded at 50,000 per well in a 96 well black-wall tissue culture plate. Cells were transfected by mixing Cignal RXR Reporter Assay firefly/renilla luciferase constructs (cat. #CCS9044L; Qiagen) with Attractene Transfection Reagent (Qiagen) in Opti-MEM supplemented with 1% MEM Non-essential amino acid solution without Lglutamine. After medium change test materials were added and their effect on RXR induction was quantified 24 h later with the Dual-Luciferase Reporter Assay System (cat. #E1960; Promega).
RXR is a mixture of an inducible retinoid X receptor—responsive firefly luciferase construct and a constitutively expressing Renilla construct, which acts as an internal control for normalizing transfection efficiencies and monitoring cell viability. Signal quantification was obtained with ThermoFisher Scientific Luminoskan Ascent Microplate Luminometer.
On the technique in general: A reporter such as luciferase makes a cellular process visible.

Consider `CC1=C(/C=C/C(C)=C/C=C/C(C)=C/C(=O)O)C(C)(C)CCC1` [ATRA, all trans retinoic acid], for which the “RARE-mediated firefly luciferase expression, % control” value in experiment [1] (0.2 μM) was 775 % control and 1099 % control; in experiment [1] (1 μM), 1054 % control and 1284 % control; in experiment [1] (5 μM), 973 % control. Moreover, the “RARE-mediated firefly luciferase expression, Fold increase” value is 7.8 and 11.0 in experiment [1] (0.2 μM); 10.5 and 12.8 in experiment [1] (1 μM); 9.7 in experiment [1] (5 μM). In addition, the “RXR activation (% control)” value in experiment [2] (0.2 μM) is 201 % control; in experiment [2] (1 μM), 340 % control; in experiment [2] (5 μM), 437 % control. Also, the “Activity in RXR reporter assay” value in experiment [2] is “best performers”.

For `CC1=C(/C=C/C(C)=C/C=C/C(C)=C/C=O)C(C)(C)CCC1` [Retinal, retinaldehyde], the “RARE-mediated firefly luciferase expression, % control” value in experiment [1] (1 μM) is recorded as 613 % control; in experiment [1] (5 μM), 1005 % control; in experiment [1] (10 μM), 946 % control. For the same molecule, the “RARE-mediated firefly luciferase expression, Fold increase” value was determined as 6.1 in experiment [1] (1 μM), 10.0 in experiment [1] (5 μM) and 9.5 in experiment [1] (10 μM). In addition, the “times less effective than retinoic acid in modulating the RARE pathway” value in experiment [1] (at 1 uM) was determined as 1.7 times. Also, the “effectiveness vs retinoic acid in modulating the RARE pathway” value in experiment [1] (at 5 uM) was “equivalent to retinoic acid”. Besides, the “Activity in RARE reporter assay” value in experiment [1] is listed as “best performer”. Also, the “RXR activation (% control)” value came to 131 % control in experiment [2] (1 μM), 181 % control in experiment [2] (5 μM) and 279 % control in experiment [2] (10 μM). Besides, the “times less effective in modulating RXR pathway in comparison to retinoic acid” value in experiment [2] (at 5 uM) worked out at 2.4 times. Moreover, in experiment [2], the “Activity in RXR reporter assay” value is reported as “best performers”.

For `CC1=C(/C=C/C(C)=C/C=C/C(C)=C/CO)C(C)(C)CCC1` [Retinol, retinol], the “RARE-mediated firefly luciferase expression, % control” value in experiment [1] (1 μM) was 138 % control and 150 % control; in experiment [1] (5 μM), 268 % control and 253 % control; in experiment [1] (10 μM), 278 % control and 294 % control. The “RARE-mediated firefly luciferase expression, Fold increase” value is 1.4 and 1.5 in experiment [1] (1 μM); 2.7 and 2.5 in experiment [1] (5 μM); 2.8 and 2.9 in experiment [1] (10 μM).

For `CCCCCCCCCCCCCCCC(=O)OC/C=C(C)/C=C/C=C(C)/C=C/C1=C(C)CCCC1(C)C` [Vit A Palmitate, vitamin A palmitate], the “RARE-mediated firefly luciferase expression, % control” value in experiment [1] (1 μM) was 75 % control and 76 % control; in experiment [1] (5 μM), 77 % control and 73 % control; in experiment [1] (10 μM), 86 % control and 67 % control. In addition, the “RARE-mediated firefly luciferase expression, Fold increase” value in experiment [1] (1 μM) was 0.7 and 0.8; in experiment [1] (5 μM), 0.8 and 0.7; in experiment [1] (10 μM) it was 0.9 and 0.7. The “Activity in RARE reporter assay” value in experiment [1] is given as “All test materials except Vit-A-Pal were active”.

The record behind these values is patent US11318077B2, “Retinaldehyde containing compositions and methods of use” (RODAN & FIELDS, LLC, priority 2017, dated 2022).
